Experimental data published in patent US20160158280A1, “A METHOD FOR ORGAN ARREST, PROTECTION AND PRESERVATION AND REDUCING TISSUE INJURY” (priority 2013, published 2016).
Where “and” joins values, the source holds several entries; their conditions need not be identical. Equal entries are not always repeated.

What was measured:
[1] = system: isolated guinea-pig mesenteric artery; assay: Isolated guinea-pig mesenteric artery relaxation (pressure myograph, videomicroscopy); conditions: for relaxation of isolated intact mesenteric artery: AVP-constricted, 0.001 to 1 mM luminal or abluminal; for abluminal versus luminal relaxation: intact artery, adenosine: at 10 μM and 100 μM
Experimental: Male guinea pigs (250-300 g) were anesthetised and placed in a cradle and the abdomen opened. Second order mesenteric artery branches were isolated and mounted in a pressure myograph (see FIG. 4) under constant pressure of 60 mmHg and perfusion (luminal flow) of 100 uL/min with Krebs-Henseleit buffer (37° C.). Artery diameter was continuously measured using videomicroscopy (see FIG. 4). For the relaxation/vasodilation experiments arteries were equilibrated and then constricted with 10^−8 M arginine vasopressin (AVP). Adenosine, lidocaine or adenosine-lidocaine together were administered 2) luminally and 2) abluminally and concentration curves were obtained. Stock solutions of adenosine and lidocaine alone or adenosine-lidocaine combined were made in deionized water to 20 mM. A range of volumes were pipetted to provide contact concentrations with the vessel lumen or outer wall that ranged from 0.001 to 1 mM. At the end of experiments, arteries were dilated using calcium-free solution to obtain 100% relaxation. A number of arteries were denuded by introducing 5 ml air into the lumen with flow rate 1000 μl/min. The air outflow was then clamped until the intraluminal pressure reached 70 mmHg, flow rate was reduced to 2 μl/min and the vessel remained pressurized for 10 minutes

human NK(1) receptor = human NK(1) receptor (Homo sapiens, UniProt P25103); conditions: cited from earlier work
Chain of human NK(1) receptor (P25103 whole entry): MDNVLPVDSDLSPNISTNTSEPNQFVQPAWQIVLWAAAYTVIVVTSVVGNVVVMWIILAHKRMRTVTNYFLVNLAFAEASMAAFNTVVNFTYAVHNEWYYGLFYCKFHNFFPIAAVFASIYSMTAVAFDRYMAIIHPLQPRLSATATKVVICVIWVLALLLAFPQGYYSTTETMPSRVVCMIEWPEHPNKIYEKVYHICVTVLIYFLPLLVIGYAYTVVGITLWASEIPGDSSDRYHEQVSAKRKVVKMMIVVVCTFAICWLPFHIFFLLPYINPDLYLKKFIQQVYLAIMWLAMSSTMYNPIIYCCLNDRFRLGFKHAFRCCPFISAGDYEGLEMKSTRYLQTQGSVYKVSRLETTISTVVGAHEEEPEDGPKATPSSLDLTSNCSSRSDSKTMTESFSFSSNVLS

humans = conditions: oral and/or intravenous 10, 25, 50, and 100 mg/kg body weight; cited from earlier work
[2] = 400 mg daily tablets; cited from earlier work
[3] = cited from earlier work

CCN(CC)CC(=O)Nc1c(C)cccc1C [lidocaine]
relaxation of isolated intact mesenteric artery [1]: failed to produce relaxation | relaxation of mesenteric artery ([1]; endothelium absent (denuded)): relaxed the artery | relaxation of mesenteric artery ([1]; endothelium present): did not significantly change mesenteric artery diameter | abluminal versus luminal relaxation [1]: no significant difference

Cc1cccc(C)c1NC(=O)C[C@H]1CCN(C(=O)c2cc(C(F)(F)F)cc(C(F)(F)F)c2)[C@@H](Cc2ccccc2)C1.O=C(O)C[C@H](O)C(=O)O (relative stereo) [R116301, (2R-trans)-4-[1-[3,5-bis(trifluoromethyi)benzoyl]-2-(phenylmethyl)-4-piperidinyl]-N-(2,6-dimethylphenyl)-1-acetamide (S)-Hydroxybutanedioate]
selectivity toward NK(2) and NK(3) receptors (human NK(1) receptor): over 200 fold | Ki (human NK(1) receptor; human NK(1) receptor): 0.45 nM

NC(=O)c1ncn([C@@H]2O[C@H](CO)[C@@H](O)[C@H]2O)c1N [Acadesine, 5-amino-4-imidazole carboxamide ribonucleoside]
safety in humans (humans): safe in humans

OCCN(CCO)c1nc(N2CCCCC2)c2nc(N(CCO)CCO)nc(N3CCCCC3)c2n1 [Dipyridamole]
plasma level [2]: about 0.4 μg/ml and 0.8 μM

Nc1ncnc2c1ncn2[C@@H]1O[C@H](CO)[C@@H](O)[C@H]1O [adenosine]
half life in the blood [3]: about 10 seconds | relaxation of isolated intact mesenteric artery [1]: increased relaxation | relaxation of mesenteric artery ([1]; endothelium absent (denuded)): relaxed the mesenteric artery in a dose dependent manner | relaxation of mesenteric artery ([1]; endothelium present): relaxed the mesenteric artery in a dose dependent manner | abluminal versus luminal relaxation [1]: significantly more relaxation
